Entries after “also recorded” stand apart in the source; their conditions may differ.
Tests used:
tubulin, colchicine site = assay: Colchicine competition (competitive tubulin-binding) assay; settings: 0, 1.6, 5 and 15 μM, 1 h at 37 °C, then 5 μM colchicine
Description: Figure 6 Colchicine competition assay. […] The fluorescence was measured by Hitachi F-2500 spectrofluorometer.
Then colchicine was added to a final concentration of 5 μM[43]. Fluorescence was determined using a Hitachi F-2500 spectrofluorometer (Tokyo, Japan) at excitation wavelengths of 365 nm and emission wavelengths of 435 nm. Blank values (buffer alone) as background were subtracted from all samples. […] Taxol, not binding in the colchicine-site of tubulin, was added as a negative control.

H460 (human lung cancer) = assay: MTT antiproliferative assay, H460; format: cell-based; settings: Homo sapiens, MTT, 72 h, mean ± SD
Description: (§1) To evaluate the antiproliferative activity, all synthesized derivatives (5a–5v and 7a–7h) were investigated for their activity in vitro against a panel of cancer cell lines including HT-29 (human colon cancer), H460 (human lung cancer), A549 (human lung carcinoma), MKN-45 (human gastric cancer) and SMMC-7721 (human liver cancer) by MTT assay. CA-4 and Crolibulin were served as positive control, and the results expressed as half-maximal inhibitory concentration (IC50). IC50 values are the concentrations that cause 50% inhibition of cancer cell growth (μM). Data represent the mean values ± standard deviation (SD) of independent experiments performed in triplicate.
(§2) The antiproliferative activities in vitro of Crolibulin and all the target compounds were determined by an MTT assay. Briefly, cells were seeded into 96-well plates at a density of 1–3 × 10^4/well (depends on the cell growth rate). 24 h later, triplicate wells were treated with media and the agents. After 72 h ofincubation at 37 °C in 5% CO2, the drug containing medium wasremoved and replaced by 100 mL of fresh medium with 5 mg/mLMTT solution. After 4 h of incubation, the medium with MTT was removed, and […] of DMSO was added to each well. The plates were gently agitated until the purple formazan crystals were dissolved, and the OD490 was determinedusing a microplate reader (MK3, Thermo, Germany). The data were calculated and plotted as the percent viability compared to the control. The 50% inhibitory concentration (IC50) was defined as theconcentration that reduced the absorbance of the untreated wells by 50% of the vehicle in the MTT assay.

[1] = tested on: MKN-45 (human gastric cancer); assay: MTT antiproliferative assay, MKN-45; format: cell-based; settings: 72 h, mean ± SD, read-out: IC50 (μM) ±SD MKN45
Description: as §1
(§3) Cell lines and culture conditions.The human colon carcinoma cell line HT-29, the human pulmonary carcinoma cell line A549, the human gastric carcinoma cell line MKN-45, the human breast cancer cell line MDA-MB-231 and human heptocarcinoma cellline SMMC-7721were cultured in RPMI-1640 mediumcontaining 10% FBS, 100 U/mL streptomycin and 100 U/mL penicillinat 37 °C in humidified atmosphere with 5% CO2. All of the cells were purchased from the American Type Culture Collection (ATCC, Manassas, VA).
as §2

[2] = tested on: HT-29, H460, A549, MKN-45 and SMMC-7721 cell lines; assay: MTT antiproliferative assay, panel of five cancer cell lines; format: cell-based, human; settings: ratio of IC50 values
Description: IC50 values are the concentrations that cause 50% inhibition of cancer cell growth (μM). Data represent the mean values ± standard deviation (SD) of independent experiments performed in triplicate.
as §2

[3] = tested on: SMMC-7721 (human liver cancer); assay: MTT antiproliferative assay, SMMC-7721; format: cell-based; settings: 72 h, mean ± SD
Description: Data represent the mean values ± standard deviation (SD) of independent experiments performed in triplicate.
All of the cells were purchased from the American Type Culture Collection (ATCC, Manassas, VA).
as §2, with “After 72 h ofincubation at 37 °C in 5% CO2, the drug containing medium wasremoved and replaced by 100 mL of fresh medium with 5 mg/mLMTT solution.” left out, “control.” for “control. The 50% inhibitory concentration (IC50) was defined as theconcentration that reduced the absorbance of the untreated wells by 50% of the vehicle in the MTT assay.”

[4] = tested on: human fetal hepatocyte line L02; assay: MTT assay on normal cell line L02; format: cell-based; settings: non-cancer cell line
Description: The drug candidate potency depends not only on its cytotoxicity in malignant cells, but also on its relative lack of toxicity toward normal cells.
as §2

[5] = tested on: A549 (human lung carcinoma); assay: MTT antiproliferative assay, A549; format: cell-based; settings: 72 h, mean ± SD
Description: as §1, §3, §2

[6] = tested on: HT-29 (human colon cancer); assay: MTT antiproliferative assay, HT-29; format: cell-based; settings: Homo sapiens, HT-29; MTT, 72 h, mean ± SD; read-out: IC50 (μM) ±SD HT29
Description: as §1, §3, §2

HT-29 cells = assay: Cell cycle phase distribution by flow cytometry; format: cell-based, human; settings: 24 h
Description: The structural similarities between the target compounds (5a–5v and 7a–7h) with CA-4 and Crolibulin, as well as the promising cytotoxic activity led us to hypothesize that these compounds exert their antiproliferative properties through inhibition of tubulin dynamics, thus inducing mitotic arrest in cancer cells. […] Controls were treated with drug vehicle DMSO. […] And this effect is characteristic of antimitotic agents disrupting microtubule assembly.
Data are expressed as the mean ± SEM.
For flow cytometric analysis of DNA content, cells inexponential growth were treated with compound for 24 h[41]. The cells treated with compoundwere collected, washed twice with PBS, and then fixed with 75% alcohol overnight. Then, the cells were washed with PBS and resuspended in 100 μL of PBS, 200 mg/mL RNase wasadded for 30 min to eliminate the interference of RNA, and 20 mL/L propidium iodide (PI; Sigma) was added for 30 min.Then, the cells were washed, and the DNA content wasdetected by flow cytometer (BD Accuri C6).

[7] = tested on: microtubules in HT-29 cells; assay: Immunofluorescence staining of microtubule network; format: cell-based, human; settings: 12 h, anti-α-tubulin immunostaining
Description: After incubation, cells were fixed, reacted with monoclonal anti-tubulin antibody at 4 °C overnight and then reacted with fluorescein isothiocyanate (FITC) conjugated secondary antibody, DAPI was used for nuclear counter-staining, the cellular microtubules were observed under fluorescence microscope (scale bar = 20 μm).
The HT-29 cells were seeded at 1 × 10^4 per well on a 24 wellplate and grown for 24 h. […] Cells in the control group were treated with culture medium. The control and treated cells were fixed with 4% formaldehydein PBS for 30 min at −20 °C, then washed twice with PBS and permeabilized with 0.1% (v/v) Triton X-100 in PBS for 5 min. Then, the cells were blocked with 3% bovine serum albumin(BSA) in PBS for 30 min. The primary α-tubulin antibody wasdiluted (1:100) with 2% BSA in PBS and incubated overnight at 4 °C. The cells were washed with PBS to remove unbound primaryantibody and then cells were incubated with FITC-conjugated antimousesecondary antibody, diluted (1:100) with 2% BSA in PBS, for 2 h at 37 °C. The cells were washed with PBS to remove unbound secondary antibody, nucleus was stained with 4,6-diamino-2-phenolindoldihydrochloride (DAPI) and then, immunofluorescencewas detected using a fluorescence microscope (Olympus,Tokyo, Japan).

Row | IC50 (H460 (human lung cancer); NCI-H460, 72 h) | IC50 [1] | IC50 [3] | IC50 [5] | melting point | IC50 [6] | Structure (SMILES) | effect on intrinsic fluorescence of colchicine-tubulin complex (tubulin, colchicine site) | fold increased potency over 5a (H), 5c (3-OMe) and 5d (4-OMe) [2] | effect on normal cell L02 [4] | percent of cells in G1 phase (HT-29 cells; HT-29, 20 nM) | percent of cells in G1 phase (HT-29 cells; HT-29, 200 nM) | percent of cells in G2 (G2/M) phase (HT-29 cells; HT-29, 200 nM) | percent of cells in G1 phase (HT-29 cells; HT-29, 1000 nM) | percent of cells in G2 (G2/M) phase (HT-29 cells; HT-29, 1000 nM) | effect on microtubule network ([7]; HT-29, 32.5 nM) | IC50 (H460 (human lung cancer); NCI-H460) | effect on microtubule network ([7]; HT-29, 20 nM)
1 |  |  |  |  |  |  | CC(=O)O[C@H]1C(=O)[C@@]2(C)[C@H]([C@H](OC(=O)c3ccccc3)[C@]3(O)C[C@H](OC(=O)[C@H](O)[C@@H](NC(=O)c4ccccc4)c4ccccc4)C(C)=C1C3(C)C)[C@]1(OC(C)=O)CO[C@@H]1C[C@@H]2O [Taxol, reference compound] | scarcely effect |  |  |  |  |  |  |  |  |  | 
2 | 0.71 ± 0.05 µM | 16.6 ± 1.13 µM | 22.1 ± 3.41 µM | 7.53 ± 0.63 µM | 175.4 to 178.4 °C | 0.19 ± 0.02 µM | CN(C)Cc1cn2c(-c3c[nH]c4ccccc34)cc(-c3ccc(F)cc3Cl)c(C#N)c2n1 [7d, 7-(2-chloro-4-fluorophenyl)-2-((dimethylamino)methyl)-5-(1H-indol-3-yl)imidazo[1,2-a]pyridine-8-carbonitrile] |  |  |  |  |  |  |  |  |  |  | 
3 | 17.2 ± 1.34 µM | 31.2 ± 5.79 µM | > 100 µM | 67.3 ± 4.59 µM | 301.7 to 304.6 °C | 2.86 ± 0.38 µM | N#Cc1c(-c2ccccc2F)cc(-c2c[nH]c3ccc(Br)cc23)n2ccnc12 [5s, 5-(5-bromo-1H-indol-3-yl)-7-(2-fluorophenyl)imidazo[1,2-a]pyridine-8-carbonitrile] |  |  |  |  |  |  |  |  |  |  | 
4 | 0.85 ± 0.06 µM | 1.63 ± 0.28 µM | 11.3 ± 2.15 µM | 20.3 ± 2.32 µM | 185.7 to 187.9 °C | 0.56 ± 0.07 µM | CC1CCN(Cc2cn3c(-c4c[nH]c5ccccc45)cc(-c4ccc(F)cc4Cl)c(C#N)c3n2)CC1 [7f, 7-(2-chloro-4-fluorophenyl)-5-(1H-indol-3-yl)-2-((4-methylpiperidin-1-yl)methyl)imidazo[1,2-a]pyridine-8-carbonitrile] |  |  |  |  |  |  |  |  |  |  | 
5 | 46.3 ± 5.26 µM | 1.52 ± 0.15 µM | 0.82 ± 0.06 µM | 0.23 ± 0.04 µM | 334.3 to 335.1 °C | 0.16 ± 0.04 µM | Cc1ccccc1-c1cc(-c2c[nH]c3ccccc23)n2ccnc2c1C#N [5b, 5-(1H-indol-3-yl)-7-(o-tolyl)imidazo[1,2-a]pyridine-8-carbonitrile] |  |  | negligible effects |  |  |  |  |  |  |  | 
6 | 80.7 ± 6.98 µM | 56.8 ± 4.29 µM | > 100 µM | > 100 µM | 302.2 to 306.8 °C | 0.58 ± 0.06 µM | N#Cc1c(-c2ccccc2Cl)cc(-c2c[nH]c3ccc(Br)cc23)n2ccnc12 [5t, 5-(5-bromo-1H-indol-3-yl)-7-(2-chlorophenyl)imidazo[1,2-a]pyridine-8-carbonitrile] |  |  |  |  |  |  |  |  |  |  | 
7 | 9.61 ± 0.74 µM | 14.5 ± 2.43 µM | 97.2 ± 6.54 µM | 80.2 ± 9.68 µM | 327.7 to 330 °C | 1.16 ± 0.13 µM | COc1cc(-c2cc(-c3c[nH]c4ccccc34)n3ccnc3c2C#N)c(Br)cc1O [5n, 7-(2-bromo-4-hydroxy-5-methoxyphenyl)-5-(1H-indol-3-yl)imidazo[1,2-a]pyridine-8-carbonitrile] |  |  |  |  |  |  |  |  |  |  | 
8 | 11.4 ± 1.68 µM | 7.38 ± 0.63 µM | > 100 µM | 67.3 ± 7.43 µM | 337.9 to 342.4 °C | 1.74 ± 0.14 µM | N#Cc1c(-c2ccccc2)cc(-c2c[nH]c3ccc(Br)cc23)n2ccnc12 [5r, 5-(5-bromo-1H-indol-3-yl)-7-phenylimidazo[1,2-a]pyridine-8-carbonitrile] |  |  |  |  |  |  |  |  |  |  | 

Row | Structure (SMILES) | IC50 (H460 (human lung cancer); NCI-H460, 72 h) | IC50 [1] | IC50 [3] | IC50 [5] | melting point | IC50 [6] | effect on intrinsic fluorescence of colchicine-tubulin complex (tubulin, colchicine site) | fold increased potency over 5a (H), 5c (3-OMe) and 5d (4-OMe) [2] | effect on normal cell L02 [4] | percent of cells in G1 phase (HT-29 cells; HT-29, 20 nM) | percent of cells in G1 phase (HT-29 cells; HT-29, 200 nM) | percent of cells in G2 (G2/M) phase (HT-29 cells; HT-29, 200 nM) | percent of cells in G1 phase (HT-29 cells; HT-29, 1000 nM) | percent of cells in G2 (G2/M) phase (HT-29 cells; HT-29, 1000 nM) | effect on microtubule network ([7]; HT-29, 32.5 nM) | IC50 (H460 (human lung cancer); NCI-H460) | effect on microtubule network ([7]; HT-29, 20 nM)
9 | N#Cc1c(-c2ccccc2Cl)cc(-c2c[nH]c3ccccc23)n2ccnc12 [5f, 7-(2-chlorophenyl)-5-(1H-indol-3-yl)imidazo[1,2-a]pyridine-8-carbonitrile] | 0.18 ± 0.08 µM | 0.38 ± 0.06 µM | 13.8 ± 2.23 µM | 0.95 ± 0.07 µM | 296.7 to 300.1 °C | 0.07 ± 0.004 µM |  | at least 1.7 fold | negligible effects |  |  |  |  |  |  |  | 
10 | N#Cc1c(-c2ccc(F)cc2Cl)cc(-c2c[nH]c3ccccc23)n2ccnc12 [5k, 7-(2-chloro-4-fluorophenyl)-5-(1H-indol-3-yl)imidazo[1,2-a]pyridine-8-carbonitrile] | 0.05 ± 0.008 µM | 0.14 ± 0.03 µM |  | 0.57 ± 0.08 µM | 307.9 to 317.3 °C | 0.02 ± 0.001 µM | decreased the intrinsic colchicine fluorescence in a dose-dependent manner |  | negligible effects; also recorded: minimal | 62.84% | 65.76% | 14.21% | 24.62% | 64.07% | cellular microtubule depolymerization |  | 
11 | COc1ccc(/C=C\c2cc(OC)c(OC)c(OC)c2)cc1O [CA-4, Combretastatin A-4, reference compound] |  | 0.11 ± 0.02 µM | 1.92 ± 0.11 µM | 0.43 ± 0.053 µM |  | 0.05 ± 0.01 µM |  |  |  |  |  |  |  |  |  | 0.08 ± 0.01 µM | cellular microtubule depolymerization
12 | N#Cc1c(-c2ccccc2F)cc(-c2c[nH]c3ccccc23)n2ccnc12 [5e, 7-(2-fluorophenyl)-5-(1H-indol-3-yl)imidazo[1,2-a]pyridine-8-carbonitrile] | 1.16 ± 0.12 µM | 0.96 ± 0.06 µM | 26.2 ± 2.82 µM | 5.67 ± 0.23 µM | 304.6 to 308.8 °C | 0.09 ± 0.01 µM |  | at least 1.7 fold |  |  |  |  |  |  |  |  | 

Reference: paper PMC5327470, “Discovery and Optimization of Novel 5-Indolyl-7-arylimidazo[1,2-a]pyridine-8-carbonitrile Derivatives as Potent Antitubulin Agents Targeting Colchicine-binding Site” (Scientific Reports, 2017)
